Here are results for three molecules from US20220023216A1, “INSTANTLY SOLUBLE PARTICLE AND METHOD FOR PRODUCING THE SAME” (RICOH COMPANY, LTD., priority 2019, published 2022).

Holding throughout (format): physicochemical
Data set [1] can be described thus: Dissolution test of Test Example 1 (erlotinib, physiological saline). The following applies: physiological saline 100 mL, 25 degrees Celsius, 50 rpm. The procedure:
An active pharmaceutical ingredient of erlotinib (1.6 mg) and the particle 9 (16 mg) obtained in Example 9 were each added to a physiological saline solution (0.9 w/v %) (100 mL) as a solvent, and were dissolved for 30 minutes under the following conditions: a temperature of the solution: 25 degrees Celsius; and a stirring rate: 50 rpm. Then, an amount of the pharmaceutical agent dissolved over time was quantified through liquid chromatography (detector: UV/Vis detector).

A short description of data set [2]: Solubility of the poorly water-soluble (pharmaceutical) compound, Table 1. As to conditions: poorly-water-soluble compound (pharmaceutical compound) itself.
A short description of data set [3]: Dissolution test of Test Example 3 (ibuprofen, physiological saline). The following applies: physiological saline 100 mL, 25 degrees, 50 rpm. An excerpt: Then, an amount of the pharmaceutical agent dissolved over time was quantified through liquid chromatography (detector: UV/Vis detector).
A short description of data set [4]: Dissolution test of Test Example 2 (imatinib, water). As to conditions: water 100 mL, 25 degrees Celsius, 50 rpm. The procedure: An active pharmaceutical ingredient of imatinib (7.35 mg) and the particle 10 (73.5 mg) obtained in Example 10 were each added to water (100 mL), and were dissolved for 30 minutes under the following conditions: a temperature of the solution: 25 degrees Celsius; and a stirring rate: 50 rpm. Then, an amount of the pharmaceutical agent dissolved over time was quantified through liquid chromatography (detector: UV/Vis detector).

SMILES strings stand for the structures. Values after ≈ are worked out from the molar mass of the structure shown.

As for `C#Cc1cccc(Nc2ncnc3cc(OCCOC)c(OCCOC)cc23)c1` [Erlotinib, erlotinib], the Dissolution amount entry in data set [1] (1 min) was “Not detected”; in data set [1] (3 min) it was 0.8 mg/mL; in data set [1] (5 min), 1 mg/mL; in data set [1] (15 min), 1.1 mg/mL; in data set [1] (30 min), 2 mg/mL.
`CC(C)Cc1ccc(C(C)C(=O)O)cc1` (stereo not drawn) [Ibuprofen, ibuprofen] had a solubility in data set [2] of 20 µg/mL (≈ 97 µM). For the same molecule, the Dissolution amount result was “Not detected” in data set [3] (2 min), “Not detected” in data set [3] (5 min), 5.4 mg/mL in data set [3] (15 min) and 9.7 mg/mL in data set [3] (30 min).
As for `Cc1ccc(NC(=O)c2ccc(CN3CCN(C)CC3)cc2)cc1Nc1nccc(-c2cccnc2)n1` [Imatinib, imatinib], the Dissolution amount was 9.7 mg/mL in data set [4] (1 min); 13.4 mg/mL in data set [4] (3 min); 18 mg/mL in data set [4] (5 min); 19.8 mg/mL in data set [4] (15 min); 13.7 mg/mL in data set [4] (30 min).

What is called solubility is how much of the substance goes into solution per volume. A high value points to much dissolved substance.
